In US8962608B2, “Cycloalkylnitrile pyrazole carboxamides as janus kinase inhibitors” (Merck Sharp & Dohme Corp., priority 2011, dated 2015) one finds IC50 data, which are given here for 25 compounds.
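Note: biochemical assay with HTRF read-out.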

The target of the experiment is JAK1 (recombinant purified GST-tagged catalytic domain) (Homo sapiens (Human), UniProt P23458). The experiment in a line: biochemical.
Sequence of JAK1 (recombinant purified GST-tagged catalytic domain) (P23458 875-1153): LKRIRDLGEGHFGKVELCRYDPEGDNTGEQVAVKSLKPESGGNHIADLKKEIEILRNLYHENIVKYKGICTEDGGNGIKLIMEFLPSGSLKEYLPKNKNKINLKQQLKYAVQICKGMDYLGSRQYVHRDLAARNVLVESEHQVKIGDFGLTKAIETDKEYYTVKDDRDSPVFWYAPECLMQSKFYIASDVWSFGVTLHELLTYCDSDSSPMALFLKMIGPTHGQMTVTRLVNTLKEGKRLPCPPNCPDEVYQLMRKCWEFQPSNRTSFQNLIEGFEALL
Consider `N#C[C@H]1C[C@@H](N2CCC2)CC[C@@H]1n1cc(C(N)=O)c(Nc2ccc(CC(F)(F)F)cc2)n1` (single isomer, unassigned) [Example 28-69, 1-[(1S,2S,4S or 1R,2R,4R)-4-azetidin-1-yl-2-cyanocyclohexyl]-3-{[4-(2,2,2-trifluoroethyl)phenyl]amino}-1H-pyrazole-4-carboxamide], for which the half-inhibitory concentration (IC50) was determined as 0.6 nM.
Consider `CC(C)(C(=O)O)c1ccc(Nc2nn([C@H]3CCC(N4CCC4)C[C@@H]3C#N)cc2C(N)=O)cc1` (single isomer, unassigned) [Example 28-72, 2-[4-({1-[(1S,2S or 1R,2R)-4-azetidin-1-yl-2-cyanocyclohexyl]-4-carbamoyl-1H-pyrazol-3-yl}amino)phenyl]-2-methylpropanoic acid], for which the IC50 was 0.45 nM.
Turning to `CC(C)(C(=O)O)c1ccc(Nc2nn([C@H]3CC[C@@H](N4CCC4)C[C@@H]3C#N)cc2C(N)=O)cc1` (single isomer, unassigned) [Example 28-80, 2-[4-({1-[(1S,2S,4R or 1R,2R,4S)-4-azetidin-1-yl-2-cyanocyclohexyl]-4-carbamoyl-1H-pyrazol-3-yl}amino)phenyl]-2-methylpropanoic acid], the IC50 was 0.3 nM.
Next, `CN(C)[C@H]1CC[C@H](n2cc(C(N)=O)c(Nc3ccc(F)cc3)n2)[C@@H](C#N)C1` (single isomer, unassigned) [Example 28-94, 1-[(1S,2S,4S or 1R,2R,4S)-2-cyano-4-(dimethylamino)cyclohexyl]-3-[(4-fluorophenyl)amino]-1H-pyrazole-4-carboxamide]: 2 nM.
On to `CN(C)[C@@H]1CC[C@H](n2cc(C(N)=O)c(Nc3ccc(OC(F)F)cc3)n2)[C@@H](C#N)C1` (single isomer, unassigned) [Example 28-95, 1-[(1S,2S,4R or 1R,2R,4S)-2-cyano-4-(dimethylamino)cyclohexyl]-3-{[4-(difluoromethoxy)phenyl]amino}-1H-pyrazole-4-carboxamide], for which the half-inhibitory concentration (IC50) was 1 nM.
Turning to `COC1CN([C@H]2CC[C@H](n3cc(C(N)=O)c(Nc4ccc(C(F)(F)F)cc4)n3)[C@@H](C#N)C2)C1` (single isomer, unassigned) [Example 28-99, 1-[(1S,2S,4S or 1R,2R,4R)-2-cyano-4-(3-methoxyazetidin-1-yl)cyclohexyl]-3-{[4-(trifluoromethyl)phenyl]amino}-1H-pyrazole-4-carboxamide], the IC50 was 3 nM.
`CN(C)[C@H]1CC[C@H](n2cc(C(N)=O)c(Nc3ccc(F)cc3)n2)[C@@H](C#N)C1` (single isomer, unassigned) [Example 28-102, 1-[(1S,2S,4S or 1R,2R,4R)-2-cyano-4-(dimethylamino)cyclohexyl]-3-[(4-fluorophenyl)amino]-1H-pyrazole-4-carboxamide]: the half-maximal inhibitory concentration (IC50) was 1 nM.
For `N#C[C@H]1C[C@@H](N2CCC2)CC[C@@H]1n1cc(C(N)=O)c(Nc2ccc(OC(F)F)cc2)n1` (single isomer, unassigned) [Example 28-103, 1-[(1S,2S,4S or 1R,2R,4R)-4-azetidin-1-yl-2-cyanocyclohexyl]-3-{[4-(difluoromethoxy)phenyl]amino}-1H-pyrazole-4-carboxamide], the IC50 is 6 nM.
For the compound `CN(C)[C@H]1CC[C@H](n2cc(C(N)=O)c(Nc3ccc(OC(F)F)cc3)n2)[C@@H](C#N)C1` (single isomer, unassigned) [Example 28-104, 1-[(1S,2S,4S or 1R,2R,4R)-2-cyano-4-(dimethylamino)cyclohexyl]-3-{[4-(difluoromethoxy)phenyl]amino}-1H-pyrazole-4-carboxamide], the IC50 came out at 0.4 nM.
For `N#C[C@H]1C[C@@H](N2CC(F)C2)CC[C@@H]1n1cc(C(N)=O)c(Nc2ccc(C(F)(F)F)cc2)n1` (single isomer, unassigned) [Example 28-105, 1-[(1S,2S,4S or 1R,2R,4R)-2-cyano-4-(3-fluoroazetidin-1-yl)cyclohexyl]-3-{[4-(trifluoromethyl)phenyl]amino}-1H-pyrazole-4-carboxamide], the IC50 turned out to be 3 nM.
In the case of `N#C[C@H]1C[C@@H](N2CCC2)CC[C@@H]1n1cc(C(N)=O)c(Nc2ccc(OC(F)F)cc2)n1` (single isomer, unassigned) [Example 28-108, 1-[(1S,2S,4S or 1R,2R,4R)-4-azetidin-1-yl-2-cyanocyclohexyl]-3-{[4-(difluoromethoxy)phenyl]amino}-1H-pyrazole-4-carboxamide], the IC50 was determined as 2 nM.
Take `N#C[C@H]1C[C@@H](NCC(F)(F)F)CC[C@@H]1n1cc(C(N)=O)c(Nc2ccnc(F)c2)n1` (single isomer, unassigned) [Example 28-111, 1-{(1S,2S,4S or 1R,2R,4R)-2-cyano-4-[(2,2,2-trifluoroethyl)amino]cyclohexyl}-3-[(2-fluoropyridin-4-yl)amino]-1H-pyrazole-4-carboxamide]: the IC50 is 1 nM.
With `N#Cc1ccc(Nc2nn([C@H]3CC[C@H](NCC(F)F)C[C@@H]3C#N)cc2C(N)=O)cc1` (single isomer, unassigned) [Example 28-116, 1-{(1S,2S,4S or 1R,2R,4R)-2-cyano-4-[(2,2-difluoroethyl)amino]cyclohexyl}-3-[(4-cyanophenyl)amino]-1H-pyrazole-4-carboxamide], the IC50 was found to be 1 nM.
In the case of `CN(C)[C@H]1CC[C@H](n2cc(C(N)=O)c(Nc3ccc(Cl)cc3)n2)[C@@H](C#N)C1` (single isomer, unassigned) [Example 28-117, 3-[(4-chlorophenyl)amino]-1-[(1S,2S,4S or 1R,2R,4R)-2-cyano-4-(dimethylamino)cyclohexyl]-1H-pyrazole-4-carboxamide], the IC50 was found to be 0.55 nM.
For the compound `N#C[C@H]1C[C@@H](N2CCC2)CC[C@@H]1n1cc(C(N)=O)c(Nc2ccc(OC(F)F)cc2)n1` (single isomer, unassigned) [Example 28-118, 1-[(1S,2S,4S or 1R,2R,4R)-4-azetidin-1-yl-2-cyanocyclohexyl]-3-{[4-(difluoromethoxy)phenyl]amino}-1H-pyrazole-4-carboxamide], the IC50 stood at 0.5 nM.
Turning to `CN(C)[C@@H]1CC[C@H](n2cc(C(N)=O)c(Nc3ccc(Cl)cc3)n2)[C@@H](C#N)C1` (single isomer, unassigned) [Example 28-125, 3-[(4-chlorophenyl)amino]-1-[(1S,2S,4R or 1R,2R,4S)-2-cyano-4-(dimethylamino)cyclohexyl]-1H-pyrazole-4-carboxamide], the IC50 was 2 nM.
With `CN(C)[C@H]1CC[C@H](n2cc(C(N)=O)c(Nc3ccc(F)cc3)n2)[C@@H](C#N)C1` (single isomer, unassigned) [Example 28-129, 1-[(1S,2S,4S or 1R,2R,4R)-2-cyano-4-(dimethylamino)cyclohexyl]-3-[(4-fluorophenyl)amino]-1H-pyrazole-4-carboxamide], the IC50 came to 20 nM.
As to `CC1(C)CN([C@@H]2CC[C@H](n3cc(C(N)=O)c(Nc4ccnc(F)c4)n3)[C@@H](C#N)C2)C1` (single isomer, unassigned) [Example 28-142, 1-[(1S,2S,4R or 1R,2R,4S)-2-cyano-4-(3,3-dimethylazetidin-1-yl)cyclohexyl]-3-[(2-fluoropyridin-4-yl)amino]-1H-pyrazole-4-carboxamide], the half-inhibitory concentration (IC50) stood at 2 nM.
In the case of `N#C[C@H]1C[C@H](N2CC(O)C2)CC[C@@H]1n1cc(C(N)=O)c(Nc2ccc(S(=O)(=O)C(F)(F)F)cc2)n1` (single isomer, unassigned) [Example 28-150, 1-[(1S,2S,4R or 1R,2R,4S)-2-cyano-4-(3-hydroxyazetidin-1-yl)cyclohexyl]-3-({4-[(trifluoro-methyl)sulfonyl]phenyl}amino)-1H-pyrazole-4-carboxamide], the half-maximal inhibitory concentration (IC50) was determined as 0.3 nM.
For the compound `N#C[C@H]1C[C@@H](N2CC(O)C2)CC[C@@H]1n1cc(C(N)=O)c(Nc2ccc(S(=O)(=O)C(F)(F)F)cc2)n1` (single isomer, unassigned) [Example 28-151, 1-[(1S,2S,4S or 1R,2R,4R)-2-cyano-4-(3-hydroxyazetidin-1-yl)cyclohexyl]-3-({4-[(trifluoro-methyl)sulfonyl]phenyl}amino)-1H-pyrazole-4-carboxamide], the IC50 was found to be 0.13 nM.
For the compound `N#C[C@H]1CC(NC2COC2)CC[C@@H]1n1cc(C(N)=O)c(Nc2ccc(S(=O)(=O)C(F)(F)F)cc2)n1` (single isomer, unassigned) [Example 28-155, 1-[(1S,2S or 1R,2R)-2-cyano-4-(oxetan-3-ylamino)cyclohexyl]-3-({4-[(trifluoromethyl)sulfonyl]phen-yl}amino)-1H-pyrazole-4-carboxamide], the 50% inhibitory concentration (IC50) amounted to 0.22 nM.
Turning to `CN(CCC(F)(F)F)[C@@H]1CC[C@H](n2cc(C(N)=O)c(Nc3ccc(S(=O)(=O)C(F)(F)F)cc3)n2)[C@@H](C#N)C1` (single isomer, unassigned) [Example 28-170, 1-{(1S,2S,4R or 1R,2R,4S)-2-cyano-4-[methyl(3,3,3-trifluoropropyl)amino]cyclohexyl}-3-({4-[(trifluoromethyl)sulfonyl]phen-yl]amino)-1H-pyrazole-4-carboxamide], the concentration for half-maximal inhibition (IC50) was determined as 11 nM.
Turning to `CN(CCC(F)(F)F)[C@H]1CC[C@H](n2cc(C(N)=O)c(Nc3ccc(S(=O)(=O)C(F)(F)F)cc3)n2)[C@@H](C#N)C1` (single isomer, unassigned) [Example 28-171, 1-{(1S,2S,4S or 1R,2R,4R)-2-cyano-4-[methyl(3,3,3-tri-fluoropropyl)amino]cyclohexyl}-3-({4-[(trifluoromethyl)sulfonyl]phen-yl}amino)-1H-pyrazole-4-carboxamide], the IC50 was 2 nM.
`CC(C)N[C@H]1CC[C@H](n2cc(C(N)=O)c(Nc3ccc(S(=O)(=O)C(F)(F)F)cc3)n2)[C@@H](C#N)C1` (single isomer, unassigned) [Example 28-174, 1-{(1S,2S,4S or 1R,2R,4R)-2-cyano-4-[(1-methylethyl)amino]cyclohexy}-3-({4-[(trifluoro-methyl)sulfonyl]phenyl}amino)-1H-pyrazole-4-carboxamide]: the IC50 came to 0.15 nM.
In the case of `CC(C)N[C@@H]1CC[C@H](n2cc(C(N)=O)c(Nc3ccc(S(=O)(=O)C(F)(F)F)cc3)n2)[C@@H](C#N)C1` (single isomer, unassigned) [Example 28-175, 1-{(1S,2S,4R or 1R,2R,4S)-2-cyano-4-[(1-methylethyl)amino]cyclohexyl}-3-({4-[(trifluoro-methyl)sulfonyl]phenyl}amino)-1H-pyrazole-4-carboxamide], the IC50 was 0.35 nM.

The term IC50 denotes the concentration needed to halve the response being measured.
